Reference: US20020002198A1, “Chemical synergy to elevate growth hormone release in vertebrates” (priority 2000, published 2002)

Experiments:
[1] = tested on: mitochondrial maximal energy production; conditions: pharmacological levels, intravenous, aged animals, within an hour or two; cited from earlier work
[2] = oral ingestion, humans; cited from earlier work
[3] = tested on: GH release; assay: Serum GH at 1.5 hours post night time sleep after oral ingestion, antibody capture technique, healthy volunteer; assay type: in vivo, human; conditions: for Augmentation of GH release at 1.5 hours post sleep (in words): oral at night sleep
Experimental: Measurements of GH release occurring at 1.5 hours post sleep were performed on serum samples from a healthy volunteer. Controls and serum analysis for GH were measured by standard commercially avialable antibody capture technique. Experiments and measurement of results occurred between June and October 2000. Each single night experimental serum collection was separated from any other experiments by 1 week. All determinations represent averaged value of triple determinations. […] Measurements were each performed on serum collected 1.5 hours post night time sleep. Choice of 1.5 hours post sleep represents one complete sleep cycle with slow wave sleep during which GH is released. Oral ingestions of stated substances occurred just before night sleep. The normal range of serum GH at 1.5 hours post sleep is in the 1-10 nanograms per milliliter (ng/ml) range. The variance in measurement precision is given by the second value. All experiments were preceded by a period of 3-4 hours since the last meal.

[4] = cited from earlier work
[5] = tested on: GH release; conditions: cited from earlier work
[6] = in vivo; cited from earlier work

Question: Which “Restoration of mitochondrial maximal energy production (in words)” value [1] does the source give for `CC(=O)O[C@H](CC(=O)[O-])C[N+](C)(C)C` [Acetyl-l-carnitine, acetyl-l-carnitine] here?
Answer: restore mitochondrial maximal energy production to youthful levels

Question: What about the “Maximal immediately absorbed dose” value [2] of the same molecule?
Answer: 500 to 2000 milligrams

Question: What about the “Measured GH” value ([3]; 500 mg of the single substance alone, oral at sleep, 1.5 hour post sleep serum collection, 3-4 hours after last meal, control […] ± 0.2) of the same molecule?
Answer: 0.55 ± 0.1 ng/mL

Question: What about the “Augmentation of GH release at 1.5 hours post sleep (in words)” value [3] of the same molecule?
Answer: absence of effect

Question: And the “Safety in long human testing (in words)” value ([4]; 2.5-7 grams per day, Alzheimer's disease treatment)?
Answer: without reported negative consequences

Question: What about the “Toxicity sets in at” value ([4]; comparable to normal nutritional amino acids) of the same molecule?
Answer: about 1 % of body weight

Question: Which “Lowest oral dose that augmented normal night time GH release” value [5] does the source give for `N=C(N)NCCC[C@H](N)C(=O)O` [l-arginine] here?
Answer: greater than 3 grams

Question: And the “Elevation of growth hormone secretion (in words)” value ([5]; oral, alone, doses of up to 6 gram at night)?
Answer: does not elevate growth hormone secretion

Question: With `NCCC[C@H](N)C(=O)O` [l-ornithine] as the molecule, how does the “Augmentation of GH release at 1.5 hours post sleep (in words)” value [3] read?
Answer: absence of effect

Question: For `NCCCCN` [putrescine], which “Toxicity when administered systematically (in words)” value (shortened to “Toxicity … (in words)”) [6] is on record?
Answer: considerably less toxic

Question: Which “Toxicity … (in words)” value [6] does the source give for `NCCCCNCCCN` [spermidine] here?
Answer: considerably less toxic

Question: With `NCCCNCCCCNCCCN` [spermine] as the molecule, how does the “Toxicity … (in words)” value [6] read?
Answer: significant toxicity
